Measurements published in US20220288091A1, “Method for Improving Insulin Sensitivity” (priority 2019, published 2022).
Several values for one entry are separate records, joined by “and”; a condition that tells them apart may be missing. Equal entries are not always repeated.

Legend:
[1] = tested on: overweight or obese subjects with prediabetes or mild type 2 diabetes; assay: Fasting plasma glucose, insulin and fasting surrogate indices (HOMA-IR, QUICKI, Adipo-IR) in placebo-controlled crossover trial; format: in vivo, human; conditions: 50 mg every 6 hours for 9 days, n=16
Procedure: A randomized, placebo-controlled, double-blind crossover trial was conducted to evaluate the use of an anti-glucocorticoid as a means for ameliorating insulin resistance. Mifepristone, 50 mg, or a placebo, was administered every six hours for nine days to sixteen overweight or obese (BMI 25-37 kg/m^2) subjects (seven women). Participant ages ranged from 48 to 64 years. Ten had prediabetes and six had mild diabetes type II (HgbA1c less than 7%). Treatment of the glucose disorder with diet or a stable dose of metformin (used by two patients) was maintained for three (3) months before the study. The interventions were nine days of mifepristone or placebo treatment followed by a six (6) to eight (8) week wash out and cross over to the other arm. At baseline and at the end of each treatment period, parameters of insulin sensitivity were assessed by a frequently sampled intravenous glucose tolerance test (FSIVGTT) and an oral glucose tolerance test (OGTT). A whole body glucose disposal index of insulin sensitivity (SI) was derived using a minimal model analysis. Adipose tissue-SI, which reflects insulin-induced free fatty acid suppression, was estimated by the log-linear slope of free fatty acid levels and the AUC of insulin during the FSIVGTT. Matsuda index, oral glucose insulin sensitivity index (OGIS, ml/min/m^2), and hepatic insulin resistance index (HIRI, mg/dl×microU/ml×10^5) were derived from OGTT. Adipo-IR, a surrogate measure of adipocyte insulin resistance, was calculated by multiplying fasting concentrations of free fatty acids and insulin (mmol×pmol/L). Comparison of various post-treatment parameters was performed using crossover ANOVA. This analysis takes into account specific treatment arm, treatment order, and treatment effects. Thus, carryover effects were explicitly tested for in the crossover study.
The inventors conducted a random, triple-blinded, placebo-controlled, cross-over study using mifepristone (50 mg every 6 hours, 200 mg total daily dose) in overweight/obese individuals (n=16, 44% female) with pre-DM (pre-diabetes mellitus) or mild type 2 diabetes mellitus (glycated hemoglobin A1C […]). Mifepristone or placebo was administered for 9 days followed by a washout period of 6 to 8 weeks, and then crossover to the other treatment arm. At baseline and after each treatment period, the oral glucose tolerance test and frequently sampled intravenous glucose tolerance test were performed. Insulin sensitivity (SI) was measured using Matsuda index and oral glucose insulin sensitivity index (OGISI). Hepatic SI was assessed using hepatic insulin resistance index (HIRI), and adipose tissue SI was assessed using adipo-IR adipose tissue insulin sensitivity index (ATISI).
The study in this example used a prospective, randomized, double-blind placebo-controlled, cross-over design in which eligible subjects were randomized in blocks of six to the initial arm of the study: either placebo or mifepristone (50 mg tablets every 6 hours) for 9 days. This was followed by a 6-8 week washout period. Subjects were then crossed over to the other treatment arm for an additional 9 days. The study was conducted at the National Institutes of Health (NIH) Clinical Center, Bethesda, Md., U.S.
To reduce potential variability associated with estrogen in premenopausal women, testing was performed in the early follicular phase (days 1-7 of menstrual cycle). Baseline height and weight were measured after an overnight fast. […]

[2] = tested on: overweight or obese subjects with prediabetes or mild type 2 diabetes; assay: Frequently sampled intravenous glucose tolerance test (FSIVGTT); format: in vivo, human; conditions: Ln(FFA) slope / AUC insulin 0-90 min of FSIVGTT; 50 mg every 6 hours for 9 days; mean±SD, n=16
Procedure: A randomized, placebo-controlled, double-blind crossover trial was conducted to evaluate the use of an anti-glucocorticoid as a means for ameliorating insulin resistance. Mifepristone, 50 mg, or a placebo, was administered every six hours for nine days to sixteen overweight or obese (BMI 25-37 kg/m^2) subjects (seven women). Participant ages ranged from 48 to 64 years. Ten had prediabetes and six had mild diabetes type II (HgbA1c less than 7%). Treatment of the glucose disorder with diet or a stable dose of metformin (used by two patients) was maintained for three (3) months before the study. The interventions were nine days of mifepristone or placebo treatment followed by a six (6) to eight (8) week wash out and cross over to the other arm. At baseline and at the end of each treatment period, parameters of insulin sensitivity were assessed by a frequently sampled intravenous glucose tolerance test (FSIVGTT) and an oral glucose tolerance test (OGTT). […] Adipo-IR, a surrogate measure of adipocyte insulin resistance, was calculated by multiplying fasting concentrations of free fatty acids and insulin (mmol×pmol/L). […]
Insulin sensitivity index, SI, was determined from the minimal model using data from the insulin-modified FSIVGTT as previously described (version 6.02; MinMOD Millenium, Los Angeles, Calif.). […]

For CC#C[C@]1(O)CC[C@H]2[C@@H]3CCC4=CC(=O)CCC4=C3[C@@H](c3ccc(N(C)C)cc3)C[C@@]21C [Mifepristone, 11beta-[p-(dimethylamino)phenyl]-17alpha-(1-propynl)estra-4,9-dien-17beta-ol-3-one], the “Fasting Glucose” value ([1]; post-treatment mean±SD) was 100.4 ± 15.3 mg/dL, the “Fasting Insulin” value ([1]; post-treatment mean±SD) was 95.7 ± 76.1 pmol/L and 95.6 ± 76.1 pmol/L and the HOMA-IR ([1]; post-treatment mean±SD) was 3.58 ± 3.27. For the same compound, the QUICKI ([1]; post-treatment mean±SD) was 0.332 ± 0.034, the “Adipose-tissue Insulin Resistance Index (Adipo-IR)” value ([1]; fasting FFA × fasting insulin, mean±SD) was 50.0±46.0 mmol×pmol/L and the “Adipose-tissue Insulin Sensitivity Index (Adipose SI)” value [2] was 61.7±32.9.
